Laboratory results: ChEMBL document CHEMBL5055633, “Amphipathic Barbiturates as Mimics of Antimicrobial Peptides and the Marine Natural Products Eusynstyelamides with Activity against Multi-resistant Clinical Isolates” (J Med Chem, 2021)
Converted amounts (≈) assume the structure as drawn.

Tests used:
[1] = test system: Escherichia coli; test: Antimicrobial activity against Escherichia coli ATCC 25922 assessed as reduction in bacterial growth incubated for 48 hrs by microdilution susceptibility test; assay type: functional
[2] = test system: Staphylococcus aureus; test: Antimicrobial activity against Staphylococcus aureus ATCC 9144 assessed as reduction in bacterial growth incubated for 48 hrs by microdilution susceptibility test; assay type: functional
[3] = test system: Corynebacterium glutamicum; test: Antimicrobial activity against Corynebacterium glutamicum ATCC 13032 assessed as reduction in bacterial growth incubated for 48 hrs by microdilution susceptibility test; assay type: functional
[4] = test system: Staphylococcus aureus; test: Antimicrobial activity against extended spectrum-lactamase-carbapenemas producing Staphylococcus aureus strain WIS assessed as reduction in bacterial growth incubated for 48 hrs by microdilution method; assay type: functional
[5] = test system: Acinetobacter baumannii; test: Antimicrobial activity against oxacillinase-58 producing Acinetobacter baumannii K12-21 assessed as reduction in bacterial growth incubated for 48 hrs by microdilution method; assay type: functional
[6] = test system: Staphylococcus aureus; test: Antimicrobial activity against extended spectrum-lactamase-carbapenemas producing Staphylococcus aureus N315 assessed as reduction in bacterial growth incubated for 48 hrs by microdilution method; assay type: functional
[7] = Antimicrobial activity against New Delhi metallo-beta lactamase-1 Klebsiella pneumoniae K66-45 assessed as reduction in bacterial growth incubated for 48 hrs by microdilution method; assay type: functional
[8] = test system: MRC5; test: Cytotoxicity against human MRC5 cells assessed as reduction in cell viability incubated for 24 hrs by colorimetric tetrazolium assay; assay type: functional, cell-based; details: MRC5, 24 h
[9] = test system: Escherichia coli; test: Antimicrobial activity against oxacillinase-producing Escherichia coli 50579417 assessed as reduction in bacterial growth incubated for 48 hrs by microdilution method; assay type: functional
[10] = Antimicrobial activity against verona integron-encoded metallo-beta-lactamase -1 producing Klebsiella pneumoniae 50667959 assessed as reduction in bacterial growth incubated for 48 hrs by microdilution method; assay type: functional
[11] = test system: Pseudomonas aeruginosa; test: Antimicrobial activity against verona integron-encoded metallo-beta-lactamase producing Pseudomonas aeruginosa 50692520 assessed as reduction in bacterial growth incubated for 48 hrs by microdilution method; assay type: functional
[12] = Antimicrobial activity against oxacillinase-245 producing Klebsiella pneumoniae 50625602 assessed as reduction in bacterial growth incubated for 48 hrs by microdilution method; assay type: functional
[13] = test system: Escherichia coli; test: Antimicrobial activity against New Delhi metallo-beta lactamase-1 producing Escherichia coli 50676002 assessed as reduction in bacterial growth incubated for 48 hrs by microdilution method; assay type: functional
[14] = test system: Staphylococcus aureus; test: Antimicrobial activity against extended spectrum-lactamase-carbapenemas producing Staphylococcus aureus NCTC 10442 assessed as reduction in bacterial growth incubated for 48 hrs by microdilution method; assay type: functional
[15] = test system: Acinetobacter baumannii; test: Antimicrobial activity against oxacillinase-23 producing Acinetobacter baumannii K44-35 assessed as reduction in bacterial growth incubated for 48 hrs by microdilution method; assay type: functional
[16] = test system: Escherichia coli; test: Antimicrobial activity against imipenem-type carbapenemase-26 producing Escherichia coli 50857972 assessed as reduction in bacterial growth incubated for 48 hrs by microdilution method; assay type: functional
[17] = test system: Acinetobacter baumannii; test: Antimicrobial activity against oxacillinase-24 producing Acinetobacter baumannii K55-13 assessed as reduction in bacterial growth incubated for 48 hrs by microdilution method; assay type: functional
[18] = test system: Staphylococcus aureus; test: Antimicrobial activity against extended spectrum-lactamase-carbapenemas producing Staphylococcus aureus strain 85/2082 assessed as reduction in bacterial growth incubated for 48 hrs by microdilution method; assay type: functional
[19] = test system: Pseudomonas aeruginosa; test: Antimicrobial activity against Pseudomonas aeruginosa PAO1 assessed as reduction in bacterial growth incubated for 48 hrs by microdilution susceptibility test; assay type: functional
[20] = Antimicrobial activity against New Delhi metallo-beta lactamase-1 and oxacillinase -181 producing Klebsiella pneumoniae 50531633 assessed as reduction in bacterial growth incubated for 48 hrs by microdilution method; assay type: functional
[21] = test system: Acinetobacter baumannii; test: Antimicrobial activity against oxacillinase-23 producing Acinetobacter baumannii K63-58 assessed as reduction in bacterial growth incubated for 48 hrs by microdilution method; assay type: functional
[22] = test system: Pseudomonas aeruginosa; test: Antimicrobial activity against New Delhi metallo-beta lactamase-1 producing Pseudomonas aeruginosa 50692172 assessed as reduction in bacterial growth incubated for 48 hrs by microdilution method; assay type: functional
[23] = test system: Staphylococcus aureus; test: Antimicrobial activity against extended spectrum-lactamase-carbapenemas producing Staphylococcus aureus strain IHT 99040 assessed as reduction in bacterial growth incubated for 48 hrs by microdilution method; assay type: functional
[24] = test system: Escherichia coli; test: Antimicrobial activity against New Delhi metallo-beta lactamase-1 producing Escherichia coli 50739822 assessed as reduction in bacterial growth incubated for 48 hrs by microdilution method; assay type: functional
[25] = test system: Acinetobacter baumannii; test: Antimicrobial activity against oxacillinase-23 producing Acinetobacter baumannii K47-42 assessed as reduction in bacterial growth incubated for 48 hrs by microdilution method; assay type: functional
[26] = test system: Enterococcus faecium; test: Antimicrobial activity against extended spectrum-lactamase-carbapenemas producing Enterococcus faecium strain 50758899 assessed as reduction in bacterial growth incubated for 48 hrs by microdilution method; assay type: functional
[27] = test system: Escherichia coli; test: Antimicrobial activity against verona integron-encoded metallo-beta-lactamase-29-producing Escherichia coli 50639799 assessed as reduction in bacterial growth incubated for 48 hrs by microdilution method; assay type: functional
[28] = test system: Pseudomonas aeruginosa; test: Antimicrobial activity against verona integron-encoded metallo-beta-lactamase-4 producing Pseudomonas aeruginosa K34-73 assessed as reduction in bacterial growth incubated for 48 hrs by microdilution method; assay type: functional
[29] = test system: Enterococcus faecium; test: Antimicrobial activity against extended spectrum-lactamase-carbapenemas producing Enterococcus faecium strain K36-18 assessed as reduction in bacterial growth incubated for 48 hrs by microdilution method; assay type: functional
[30] = test system: Enterococcus faecium; test: Antimicrobial activity against extended spectrum-lactamase-carbapenemas producing Enterococcus faecium strain 50901530 assessed as reduction in bacterial growth incubated for 48 hrs by microdilution method; assay type: functional
[31] = test system: Enterococcus faecium; test: Antimicrobial activity against extended spectrum-lactamase-carbapenemas producing Enterococcus faecium strain TUH.50-22 assessed as reduction in bacterial growth incubated for 48 hrs by microdilution method; assay type: functional
[32] = test system: Pseudomonas aeruginosa; test: Antimicrobial activity against verona integron-encoded metallo-beta-lactamase-2 producing Pseudomonas aeruginosa K34-7 assessed as reduction in bacterial growth incubated for 48 hrs by microdilution method; assay type: functional
[33] = test system: Enterococcus faecium; test: Antimicrobial activity against extended spectrum-lactamase-carbapenemas producing Enterococcus faecium strain 50673722 assessed as reduction in bacterial growth incubated for 48 hrs by microdilution method; assay type: functional
[34] = Antimicrobial activity against carbapenemase producing Klebsiella pneumoniae K47-25 assessed as reduction in bacterial growth incubated for 48 hrs by microdilution method; assay type: functional
[35] = test system: Pseudomonas aeruginosa; test: Antimicrobial activity against imipenem-type carbapenemase-14 producing Pseudomonas aeruginosa K44-24 assessed as reduction in bacterial growth incubated for 48 hrs by microdilution method; assay type: functional
[36] = test system: HepG2; test: Cytotoxicity against human HepG2 cells assessed as reduction in cell viability incubated for 24 hrs by colorimetric tetrazolium assay; assay type: functional, cell-based; details: HepG2, 24 h
[37] = Hemolytic activity in human erythrocytes incubated for 1 hr by microplate reader; assay type: functional, cell-based; details: erythrocyte

SMILES | MIC [1] [µg/mL] | MIC [2] [µg/mL] | MIC [3] [µg/mL] | MIC [4] [µg/mL] | MIC [5] [µg/mL] | MIC [6] [µg/mL] | MIC [7] [µg/mL] | IC50 [8] [µg/mL] | MIC [9] [µg/mL] | MIC [10] [µg/mL] | MIC [11] [µg/mL] | MIC [12] [µg/mL] | MIC [13] [µg/mL] | MIC [14] [µg/mL] | MIC [15] [µg/mL] | MIC [16] [µg/mL] | MIC [17] [µg/mL] | MIC [18] [µg/mL] | MIC [19] [µg/mL] | MIC [20] [µg/mL] | other results
CN(C)[C@@H]1C(O)=C(C(N)=O)C(=O)[C@@]2(O)C(O)=C3C(=O)c4c(O)cccc4[C@@](C)(O)[C@H]3[C@H](O)[C@@H]12 [OXYTETRACYCLINE] | 20 (≈ 43.4 µM) | 0.65 (≈ 1.41 µM) | 2.5 (≈ 5.43 µM) | – | – | – | – | – | – | – | – | – | – | – | – | – | – | – | – | – | –
NCCCCN1C(=O)N(CCCCN)C(=O)C(Cc2cc(C(F)(F)F)cc(C(F)(F)F)c2)(Cc2cc(C(F)(F)F)cc(C(F)(F)F)c2)C1=O.O=C(O)C(F)(F)F.O=C(O)C(F)(F)F | 16 | 16 | 4 | 16 | 16 | 16 | 32 | 17 | 16 | 32 | 32 | 32 | 16 | 16 | 32 | 8 | 32 | 16 | 16 | 32 | MIC [21]: 32 µg/mL; MIC [22]: 32 µg/mL; MIC [23]: 16 µg/mL; MIC [24]: 16 µg/mL; MIC [25]: 32 µg/mL; MIC [26]: 16 µg/mL; MIC [27]: 16 µg/mL; MIC [28]: 32 µg/mL; MIC [29]: 16 µg/mL; MIC [30]: 8 µg/mL; MIC [31]: 8 µg/mL; MIC [32]: 32 µg/mL; MIC [33]: 8 µg/mL; MIC [34]: > 32 µg/mL; MIC [35]: 32 µg/mL; IC50 [36]: 9 µg/mL; EC50 [37]: 177 µg/mL
N=C(N)NCCCCN1C(=O)N(CCCCNC(=N)N)C(=O)C(Cc2ccc(Br)c(Cl)c2)(Cc2ccc(Br)c(Cl)c2)C1=O.O=C(O)C(F)(F)F.O=C(O)C(F)(F)F | 2 | 0.5 | 0.25 | 2 | 8 | 2 | 8 | 36 | 4 | 8 | 16 | 4 | 4 | 4 | 8 | 4 | 8 | 2 | 8 | 4 | MIC [21]: 8 µg/mL; MIC [22]: 32 µg/mL; MIC [23]: 2 µg/mL; MIC [24]: 4 µg/mL; MIC [25]: 8 µg/mL; MIC [26]: 4 µg/mL; MIC [27]: 4 µg/mL; MIC [28]: 8 µg/mL; MIC [29]: 4 µg/mL; MIC [30]: 2 µg/mL; MIC [31]: 2 µg/mL; MIC [32]: 16 µg/mL; MIC [33]: 4 µg/mL; MIC [34]: 4 µg/mL; MIC [35]: 16 µg/mL; IC50 [36]: 15 µg/mL; EC50 [37]: 77 µg/mL
NCCCCN1C(=O)N(CCCCN)C(=O)C(Cc2ccc(F)c3ccccc23)(Cc2ccc(F)c3ccccc23)C1=O.O=C(O)C(F)(F)F.O=C(O)C(F)(F)F | 16 | 4 | 1 | 8 | 32 | 8 | 32 | 2 | 16 | 32 | 16 | 32 | 16 | 8 | 32 | 16 | 32 | 4 | 8 | 16 | MIC [21]: 16 µg/mL; MIC [22]: 16 µg/mL; MIC [23]: 8 µg/mL; MIC [24]: 16 µg/mL; MIC [25]: 32 µg/mL; MIC [26]: 8 µg/mL; MIC [27]: 16 µg/mL; MIC [28]: 32 µg/mL; MIC [29]: 8 µg/mL; MIC [30]: 4 µg/mL; MIC [31]: 4 µg/mL; MIC [32]: 32 µg/mL; MIC [33]: 8 µg/mL; MIC [34]: > 32 µg/mL; MIC [35]: 32 µg/mL; IC50 [36]: 5 µg/mL; EC50 [37]: 160 µg/mL
